In patent US9169205B2, “Pyrrolidine derivatives, pharmaceutical compositions and uses thereof” (Boehringer Ingelheim International GmbH, priority 2012, dated 2015) one finds IC50 data, which are given here for 60 molecules.

Molecules are shown by their SMILES.

The assay concerns the target human ACC2 (Homo sapiens (Human), UniProt O00763). The assay is described as follows: ACC2 assay (spectrophotometric 384 well assay, NADH-linked kinetic method). In kind it is biochemical. The conditions noted are these: hACC2 construct lacking 128 N-terminal amino acids, 25° C., 340 nm. The method, then:
Spectrophotometric 384 Well Assay
Malonyl CoA formation by acetyl CoA carboxylases is stoichometrically linked to the consumption of ATP. ACC2 activity is measured in a NADH-linked kinetic method measuring ADP generated during the ACC reaction using a coupled lactate dehydrogenase/pyruvate kinase reaction.
The protein is then expressed in insect cells using a baculoviral expression system. Protein purification is performed by anion exchange.
All compounds are dissolved in dimethyl sulfoxide (DMSO) to a concentration of 10 mM.
The enzymatic reaction is then started by addition of a mixture of NADH, acetyl Coenzyme A (both 200 μM f.c.) and ATP (500 uM f.c.). The decrease of the optical density (slope S) is then determined at 25° C. at a wavelength of 340 nm over 15 minutes in a spectrophotometric reader.
Each assay microtiter plate contains wells with vehicle instead of compound as controls for the non-inhibited enzyme (100% CTL; ‘HIGH’) and wells without acetyl-CoA as controls for non-specific NADH degradation (0% CTL; ‘LOW’).

Sequence of human ACC2 (O00763 129-2458): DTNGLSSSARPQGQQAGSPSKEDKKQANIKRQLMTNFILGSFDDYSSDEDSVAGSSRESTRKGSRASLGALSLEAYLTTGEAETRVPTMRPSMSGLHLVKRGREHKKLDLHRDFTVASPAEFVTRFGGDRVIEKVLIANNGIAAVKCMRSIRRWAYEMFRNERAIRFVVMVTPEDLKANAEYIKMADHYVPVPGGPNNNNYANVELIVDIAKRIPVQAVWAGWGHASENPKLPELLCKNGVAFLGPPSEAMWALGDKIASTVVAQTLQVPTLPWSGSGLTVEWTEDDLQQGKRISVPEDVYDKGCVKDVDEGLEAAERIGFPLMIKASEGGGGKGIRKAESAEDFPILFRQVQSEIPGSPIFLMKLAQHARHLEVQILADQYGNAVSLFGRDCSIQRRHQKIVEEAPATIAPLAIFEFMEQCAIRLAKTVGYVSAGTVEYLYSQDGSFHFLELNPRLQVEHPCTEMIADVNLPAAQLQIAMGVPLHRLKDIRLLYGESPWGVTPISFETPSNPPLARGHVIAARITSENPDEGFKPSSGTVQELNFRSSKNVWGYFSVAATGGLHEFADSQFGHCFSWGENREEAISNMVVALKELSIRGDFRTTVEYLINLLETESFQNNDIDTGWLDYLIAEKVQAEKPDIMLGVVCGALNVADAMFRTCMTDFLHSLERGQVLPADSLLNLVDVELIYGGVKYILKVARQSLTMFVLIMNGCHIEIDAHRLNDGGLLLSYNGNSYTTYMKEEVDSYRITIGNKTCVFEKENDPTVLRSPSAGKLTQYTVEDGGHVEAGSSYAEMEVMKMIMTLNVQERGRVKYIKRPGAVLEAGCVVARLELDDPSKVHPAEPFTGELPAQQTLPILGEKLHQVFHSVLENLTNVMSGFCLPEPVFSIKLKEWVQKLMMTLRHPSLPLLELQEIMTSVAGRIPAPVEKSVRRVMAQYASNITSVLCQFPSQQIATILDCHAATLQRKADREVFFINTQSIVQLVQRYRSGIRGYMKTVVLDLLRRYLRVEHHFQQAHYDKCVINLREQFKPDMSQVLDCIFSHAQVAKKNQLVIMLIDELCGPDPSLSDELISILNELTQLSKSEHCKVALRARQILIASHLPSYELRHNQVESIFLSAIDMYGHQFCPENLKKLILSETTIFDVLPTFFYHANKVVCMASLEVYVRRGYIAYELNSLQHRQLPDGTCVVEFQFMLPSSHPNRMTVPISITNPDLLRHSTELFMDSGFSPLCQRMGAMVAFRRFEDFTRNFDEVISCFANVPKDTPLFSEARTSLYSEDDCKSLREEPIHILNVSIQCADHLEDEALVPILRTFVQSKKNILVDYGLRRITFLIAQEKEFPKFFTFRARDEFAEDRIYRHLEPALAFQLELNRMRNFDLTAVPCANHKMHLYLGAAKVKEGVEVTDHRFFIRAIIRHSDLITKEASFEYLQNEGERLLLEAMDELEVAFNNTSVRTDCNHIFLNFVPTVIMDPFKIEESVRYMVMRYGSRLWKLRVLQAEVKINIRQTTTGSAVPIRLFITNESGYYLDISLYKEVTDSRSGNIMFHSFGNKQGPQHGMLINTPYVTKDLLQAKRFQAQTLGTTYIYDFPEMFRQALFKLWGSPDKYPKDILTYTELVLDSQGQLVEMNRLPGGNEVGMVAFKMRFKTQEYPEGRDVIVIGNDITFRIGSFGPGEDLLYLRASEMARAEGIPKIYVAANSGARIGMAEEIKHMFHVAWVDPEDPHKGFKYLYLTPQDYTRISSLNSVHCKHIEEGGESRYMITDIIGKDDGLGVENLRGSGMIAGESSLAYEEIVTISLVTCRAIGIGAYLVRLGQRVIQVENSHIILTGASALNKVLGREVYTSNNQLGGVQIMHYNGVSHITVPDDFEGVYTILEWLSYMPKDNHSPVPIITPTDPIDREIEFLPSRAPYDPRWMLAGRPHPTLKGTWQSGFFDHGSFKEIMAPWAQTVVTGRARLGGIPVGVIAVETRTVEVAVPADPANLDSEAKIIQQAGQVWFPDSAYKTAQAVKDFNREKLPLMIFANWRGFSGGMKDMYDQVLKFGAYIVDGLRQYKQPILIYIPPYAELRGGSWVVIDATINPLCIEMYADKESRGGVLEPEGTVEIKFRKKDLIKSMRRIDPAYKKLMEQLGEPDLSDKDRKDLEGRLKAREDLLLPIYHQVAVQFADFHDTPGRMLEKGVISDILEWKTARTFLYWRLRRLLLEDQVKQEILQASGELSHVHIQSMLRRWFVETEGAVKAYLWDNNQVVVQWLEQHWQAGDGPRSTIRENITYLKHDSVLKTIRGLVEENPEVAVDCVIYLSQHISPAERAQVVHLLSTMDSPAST

In turn, `Cc1cc(OC2CC2)ccc1N1CCC(Oc2ccc([C@H](C)NC(=O)N(C)C)cc2)C1` (stereo partly drawn) [Example 1.68] came in with an IC50 of 566 nM.

Regarding `CC(=O)N[C@@H](C)c1ccc(OC2CCN(c3cccc(C)c3)C2)cc1` (stereo partly drawn) [Example 1.55], the IC50 turned out to be 214 nM. This IC50 is about 2.6-fold lower than that of the molecule before.

Regarding `CC(C)Oc1ccc(N2CCC(Oc3ccc([C@H](C)NC(=O)N4CCOCC4)cc3)C2)cc1` (stereo partly drawn) [Example 3.12], the IC50 amounted to 1280 nM.

Consider `CCOc1ccc(N2CCC(Oc3ccc([C@H](C)NC(C)=O)cc3)C2)c(F)c1F` (stereo partly drawn) [Example 1.62], for which the IC50 amounted to 335 nM. Against the preceding molecule, the IC50 is about 3.8-fold lower.

In turn, `CC(=O)Nc1nc(C)c(C(=O)N[C@@H](C)c2ccc(O[C@@H]3CCN(c4ccc(OC5CC5)cc4C)C3)cc2)s1` [Example 2.63] gave an IC50 of 238 nM.

As for `CC(=O)N[C@@H](C)c1ccc(OC2CCN(c3ccc(OCCCF)cc3C)C2)cc1` (stereo partly drawn) [Example 1.88], the IC50 stood at 102 nM. Against the preceding molecule, the IC50 is about 2.3-fold lower.

On to `C[C@H](NC(=O)N1CCC1)c1ccc(OC2CCN(c3ccc(OCC4CC4)cc3)C2)cc1` (stereo partly drawn) [Example 3.3], for which the IC50 worked out at 1270 nM.

The molecule `CC(=O)N[C@@H](C)c1ccc(OC2CCN(c3ccc(OCC4CCOC4)cc3)C2)cc1` (stereo partly drawn) [Example 1.17] gave an IC50 of 894 nM.

In the case of `CC(=O)N[C@@H](C)c1ccc(OC2CCN(c3ccc4c(c3)OCC(C)(C)CO4)C2)cc1` (stereo partly drawn) [Example 1.18], the IC50 worked out at 214 nM.

`CCCOc1ccc(N2CCC(Oc3ccc([C@H](C)NC(C)=O)cc3)C2)c(C#N)c1` (stereo partly drawn) [Example 1.13] showed an IC50 of 155 nM.

Molecule `CC(C#N)C(=O)N[C@@H](C)c1ccc(O[C@@H]2CCN(c3ccc(OCC4CC4)cc3)C2)cc1` (stereo partly drawn) [Example 2.23] yielded an IC50 of 56 nM.

Molecule `CC(=O)N[C@@H](C)c1ccc(OC2CCN(c3ccc4c(c3)C(C)(C)CO4)C2)cc1` (stereo partly drawn) [Example 1.101] registered a half-maximal inhibitory concentration (IC50) of 269 nM. This IC50 lies about 4.8-fold higher than the previous one.

`CC(=O)NC(C)c1ccc(OC2CCN(c3ccc(OCC4CC4)cc3)C2)c(F)c1` (stereo not drawn) [Example 7.3]: half-maximal inhibition (IC50) required 199 nM.

Consider `CC(=O)N[C@@H](C)c1ccc(OC2CCN(c3ccc4c(c3)OCCO4)C2)cc1` (stereo partly drawn) [Example 1.7], for which the midpoint of inhibition, the IC50, lay at 229 nM. This IC50 and that of the molecule before are within 1.5-fold of each other.

`CC(C)Oc1ccc(N2CC[C@@H](Oc3ccc([C@H](C)NC(=O)C(F)(F)F)cc3)C2)cc1` [Example 2.19] yielded a half-inhibitory concentration (IC50) of 124 nM.

In turn, `CC(=O)N[C@@H](C)c1ccc(OC2CCN(c3cccc(OC(F)(F)F)c3)C2)cc1` (stereo partly drawn) [Example 1.61] came in with an IC50 of 845 nM.

In the case of `CC(=O)N[C@@H](C)c1ccc(OC2CCN(c3ccc(OCC4CC4)c(F)c3)C2)cc1` (stereo partly drawn) [Example 1.100], half-maximal inhibition (IC50) required 87 nM.

As for `COCCOC1CN(c2ccc(OCC3CC3)cc2)CC1Oc1ccc([C@H](C)NC(C)=O)cc1` (stereo partly drawn) [Example 1.77], half-maximal inhibition (IC50) required 749 nM.

On to `CCOc1ccc(N2CC[C@@H](Oc3ccc([C@H](C)NC(=O)c4sc(NC(=O)COCc5ccccc5)nc4C)cc3)C2)cc1` [Example 2.54], for which the IC50 was 45 nM. This IC50 is about 17-fold lower than that of the molecule before.

`CC(=O)N[C@@H](C)c1ccc(OC2CCN(c3ccc(OC(C)C)cc3C)C2)cc1` (stereo partly drawn) [Example 1.85] yielded a half-inhibitory concentration (IC50) of 226 nM.

Regarding `C[C@H](NC(=O)c1cnc(N)s1)c1ccc(O[C@@H]2CCN(c3ccc(OCC4CC4)cc3)C2)cc1` [Example 2.43], the IC50 worked out at 160 nM.

In turn, `CCCOc1ccc(N2CCC(Oc3ccc([C@H](C)NC(C)=O)cc3)C2)c(OC)c1` (stereo partly drawn) [Example 1.9] returned an IC50 of 1150 nM.

Take `CC(=O)N[C@@H](C)c1ccc(OC2CCN(c3ccc4c(c3)OCCCO4)C2)cc1` (stereo partly drawn) [Example 1.23]: the 50% inhibitory concentration (IC50) came to 84 nM. Compared with the last molecule, the IC50 is about 14-fold lower.

Molecule `CC(=O)N[C@@H](C)c1ccc(OC2CCN(c3ccc(OC4CCOC4)cc3)C2)cc1` (stereo partly drawn) [Example 1.71] registered an IC50 of 272 nM. This IC50 is about 3.2-fold higher than that of the molecule before.

Molecule `CC(=O)N[C@@H](C)c1ccc(OC2CCN(c3ccc(OCC4CC4)cc3)C2)cn1` (stereo partly drawn) [Example 7.1, N—((S)-1-(5-((R)-1-(4-(Cyclopropylmethoxy)phenyl)pyrrolidin-3-ylox)pyridin-2-yl)ethyl)acetamide] registered a half-maximal inhibitory concentration (IC50) of 1780 nM. Compared with the last molecule, the IC50 is about 6.5-fold higher.

For `CC(=O)N[C@@H](C)c1ccc(OC2CCN(c3ccc(Oc4ccncc4)cc3)C2)cc1` (stereo partly drawn) [Example 1.66], the IC50 worked out at 791 nM.

In turn, `Cc1cc(OC2CC2)ccc1N1CC[C@@H](Oc2ccc([C@H](C)NC(=O)c3cncs3)cc2)C1` [Example 2.60] registered an IC50 of 260 nM. Compared with the last molecule, the IC50 is about 3-fold lower.

With `CC(=O)N[C@@H](C)c1ccc(OC2CCN(c3cccc4c3OCCO4)C2)cc1` (stereo partly drawn) [Example 1.20], the IC50 was 2960 nM.

Molecule `CCOc1ccc(N2CC[C@@H](Oc3ccc([C@H](C)NC(=O)c4sc(NC(=O)CO)nc4C)cc3)C2)cc1` [Example 10, N—((S)-1-(4-((R)-1-(4-Ethoxyphenyl)pyrrolidin-3-yloxy)phenyl)-ethyl)-2-(2-hydroxyacetamido)-4-methylthiazole-5-carboxamide] returned an IC50 of 163 nM.

Molecule `C[C@H](NC(=O)c1c[nH]nc1C(F)(F)F)c1ccc(O[C@@H]2CCN(c3ccc(OCC4CC4)cc3)C2)cc1` [Example 2.48] showed an IC50 of 445 nM.

For the molecule `C[C@H](NC(=O)C1CC1)c1ccc(O[C@@H]2CCN(c3ccc(OCC4CC4)cc3)C2)cc1` [Example 8.1, N—((S)-1-(4-((R)-1-(4-(Cyclopropylmethoxy)phenyl)pyrrolidin-3-yloxy)phenyl)-ethyl)-cyclopropanecarboxamide], half-maximal inhibition (IC50) was put at 373 nM.

Molecule `COCCCOc1ccc(N2CCC(Oc3ccc([C@H](C)NC(C)=O)cc3)C2)c(F)c1` (stereo partly drawn) [Example 1.37] displayed an IC50 of 484 nM.

`C[C@H](NC(=O)c1cn(C)nc1C(F)F)c1ccc(O[C@@H]2CCN(c3ccc(OCC4CC4)cc3)C2)cc1` [Example 2.45] came in with an IC50 of 993 nM.

`CC(=O)N[C@@H](C)c1ccc(OC2CCN(c3ccc4c(c3F)OCO4)C2)cc1` (stereo partly drawn) [Example 1.72] showed an IC50 of 558 nM.

Turning to `CCOc1ccc(N2CC[C@H](Oc3ccc([C@H](C)NC(C)=O)cc3)C2)cc1` [Example 1.3], the IC50 worked out at 263 nM. This IC50 is about 2.1-fold lower than that of the molecule before.

`C[C@H](NC(=O)C1(C(=O)N(C)C)CC1)c1ccc(O[C@@H]2CCN(c3ccc(OCC4CC4)cc3)C2)cc1` [Example 2.16] had an IC50 of 864 nM.

In turn, `CO[C@@H]1CN(c2ccc(OCC3CC3)cc2)CC1Oc1ccc([C@H](C)NC(C)=O)cc1` (stereo partly drawn) [Example 1.51] had an IC50 of 175 nM.

The molecule `C[C@H](NC(=O)c1cc[nH]n1)c1ccc(O[C@@H]2CCN(c3ccc(OCC4CC4)cc3)C2)cc1` [Example 2.13] displayed an IC50 of 359 nM.

The molecule `CC(=O)N[C@@H](C)c1ccc(OC2CCN(c3ccc(OC4CC4)cc3C)C2)cc1` (stereo partly drawn) [Example 1.25] returned an IC50 of 86 nM.

With `CCNC(=O)N[C@@H](C)c1ccc(OC2CCN(c3ccc(OCC4CC4)cc3)C2)cc1` (stereo partly drawn) [Example 3.2], half-maximal inhibition (IC50) was put at 55 nM.

Turning to `CC(=O)N[C@@H](C)c1ccc(O[C@H]2CCN(c3ccc(OCC4CC4)cc3)C2)cc1` [Example 1.48], the IC50 stood at 180 nM.

`CC(=O)N[C@@H](C)c1ccc(OC2CCN(c3ccc(Cl)cc3)C2)cc1` (stereo partly drawn) [Example 1.12] returned a half-maximal inhibitory concentration (IC50) of 899 nM.

`CC(=O)N[C@@H](C)c1ccc(OC2CCN(c3cc4c(cc3F)OCCO4)C2)cc1` (stereo partly drawn) [Example 1.46] registered an IC50 of 226 nM.

`CCNC(=O)N[C@@H](C)c1ccc(OC2CCN(c3ccc(OC(C)C)cc3)C2)cc1` (stereo partly drawn) [Example 3.10]: inhibition was half-maximal at 218 nM (IC50).

With `CC(=O)N[C@@H](C)c1ccc(OC2CCN(c3ccc4c(c3)CCO4)C2)cc1` (stereo partly drawn) [Example 1.26], half-maximal inhibition (IC50) required 397 nM.

In turn, `COc1ccc(N2CCC(Oc3ccc([C@H](C)NC(C)=O)cc3)C2)cc1C(F)(F)F` (stereo partly drawn) [Example 1.32] gave an IC50 of 538 nM.

On to `CC(=O)N[C@@H](C)c1ccc(OC2CCN(c3ccc(OCCCF)cc3)C2)cc1` (stereo partly drawn) [Example 1.70], for which the IC50 was 53 nM. This IC50 lies about 10-fold lower than the previous one.

Molecule `CC(=O)N[C@@H](C)c1ccc(O[C@H]2CCN(c3ccc(OC4CC4)cc3C)C2)cc1` [Example 1.104] gave an IC50 of 363 nM.

The molecule `CC(=O)N[C@@H](C)c1ccc(OC2CCN(c3cccc(C(F)(F)F)c3)C2)cc1` (stereo partly drawn) [Example 1.27] displayed an IC50 of 110 nM.

Molecule `C[C@H](NC(=O)N(C)C)c1ccc(OC2CCN(c3ccc(OC4CC4)cc3)C2)cc1` (stereo partly drawn) [Example 1.64] gave an IC50 of 108 nM.

Molecule `C[C@H](NC(=O)Cc1cnccn1)c1ccc(O[C@@H]2CCN(c3ccc(OCC4CC4)cc3)C2)cc1` [Example 2.3] returned an IC50 of 399 nM.

On to `CC(=O)N[C@@H](C)c1ccc(OC2CCN(c3ccc(OCC(F)F)cc3)C2)cc1` (stereo partly drawn) [Example 4.6], for which 360 nM corresponded to half-maximal inhibition (IC50).

Consider `CC(=O)N[C@@H](C)c1ccc(OC2CCN(c3cc4c(cc3C#N)OCCO4)C2)cc1` (stereo partly drawn) [Example 1.82], for which the IC50 is 1480 nM. Against the preceding molecule, the IC50 is about 4.1-fold higher.

For the molecule `CC(=O)N[C@@H](C)c1ccc(OC2CCN(c3ccc(OCC4CC(F)(F)C4)cc3)C2)cc1` (stereo partly drawn) [Example 1.96], half-maximal inhibition (IC50) was put at 61 nM.

Regarding `C[C@H](NC(=O)c1cnc(N)o1)c1ccc(O[C@@H]2CCN(c3ccc(OCC4CC4)cc3)C2)cc1` [Example 2.27], the IC50 came out at 107 nM.

Turning to `CC(=O)N[C@@H](C)c1ccc(OC2CCN(c3ccc(OCc4ccccc4)cc3)C2)cc1` (stereo partly drawn) [Example 4.5], the IC50 came to 660 nM.

Molecule `CC(=O)N[C@@H](C)c1ccc(OC2CCN(c3ccc(C)c(Cl)c3)C2)cc1` (stereo partly drawn) [Example 1.52] registered an IC50 of 599 nM.

For `CC(=O)N[C@@H](C)c1ccc(OC2CCN(c3cc4c(cc3F)OCCCO4)C2)cc1` (stereo partly drawn) [Example 1.36], 97 nM corresponded to half-maximal inhibition (IC50). Against the preceding molecule, the IC50 is about 6.2-fold lower.

Regarding `COCCCOc1ccc(N2CC[C@@H](Oc3ccc([C@H](C)NC(C)=O)cc3)C2)cc1` [Example 4.1, N—((S)-1-(4-((R)-1-(4-(3-methoxypropoxy)phenyl)pyrrolidin-3-yloxy)phenyl)ethyl)-acetamide], the IC50 came to 460 nM.

`C[C@H](NC(=O)Cc1cncnc1)c1ccc(O[C@@H]2CCN(c3ccc(OCC4CC4)cc3)C2)cc1` [Example 2.7] had an IC50 of 121 nM.

One may read the IC50 as the point on the concentration scale where inhibition reaches its midpoint. Read a high IC50 as weaker potency.
